Test results reported in patent publication EP0632029A1, “Benzylidene hydantoin derivative, ultraviolet ray absorbent and external preparation for skin including the same” (SHISEIDO COMPANY LIMITED, priority 1993, dated 1995).

How the values were obtained:
Assay type in all cases: physicochemical
[1] = Reaction with metal ion (colour change after FeCl₃); conditions: for color of the solution BEFORE ADDING FeCl₃: 0.1g in 10 ml of 99.5% ethyl alcohol; for color change of the solution AFTER ADDING FeCl₃: 0.1g in 10 ml of 99.5% ethyl alcohol plus 2 ml of 0.02% FeCl₃
Experimental: Reactivities with trivalent iron ion of the following compounds 1 to 3 as examples of the benzylidene hydantoin derivative and 2-hydroxy-4-methoxybenzophenone (comparison 1) and 2-hydroxy-5-methylphenylbenzotriazol (comparison 2) were tested. (Method)
0.1g of each compounds were dissolved in 10 ml of 99.5% ethyl alcohol and added 2 ml of 0.02% FeCl₃ (99.5% ethyl alcohol solution), respectively. After stirring, color change of the solution were observed.

Solubility = assay: Solubility
[2] = UV absorption maximum in ethanol (characterisation of the examples); conditions: for ε: at λmax
[3] = Ultraviolet ray absorption, 10ppm in ethanol, spectrophotometer; conditions: 10ppm in ethanol (99.5%), quartz cell 10mm
Experimental: Ultraviolet ray absorptivities of the compound 1, 3 and comparison (2-hydroxy-4-methoxybenzophenone; UV-A absorbent) were measured according to the following method.
The compound 1, 3 and the comparison compound were dissolved in ethanol (99.5%) so as to the concentration be 10ppm, and absorption were measured by using quartz cell (10mm×10mm) and the spectrophotometer UVIDEC-610 (JASCO CORPORATION).

CCCCCCCCN1C(=O)NC(=Cc2ccc(OC)cc2)C1=O [COM. 1, 5-(4-methoxybenzylidene)-3-n-octyl hydantoin, reference compound]
color of the solution BEFORE ADDING FeCl₃ [1]: LIGHT YELLOW | color change of the solution AFTER ADDING FeCl₃ [1]: BROWNING | Solubility (Solubility; CETYL-2-ETHYLHEXANOATE): 0.2% | Solubility (Solubility; ETHANOL(99.5%)): 0.65% | Solubility (Solubility; OLIVE OIL): 0.4%

CCCCC(CC)COc1ccc(C=C2NC(=O)N(CC(CC)CCCC)C2=O)cc1 (centres unmarked) [COMPOUND 3, 5-[4-(2-ETHYLHEXYLOXY)BENZYLIDENE]-3-(2-ETHYLEXYL) HYDANTOIN]
λmax (ethanol) [2]: 336 nm | ε [2]: 32,500 | absorption ([3]; WAVELENGTH 300 nm): 0.24 | absorption ([3]; WAVELENGTH 310 nm): 0.39 | absorption ([3]; WAVELENGTH 320 nm): 0.55 | absorption ([3]; WAVELENGTH 330 nm): 0.73 | absorption ([3]; WAVELENGTH 340 nm): 0.76 | absorption ([3]; WAVELENGTH 350 nm): 0.68 | absorption ([3]; WAVELENGTH 360 nm): 0.40 | absorption ([3]; WAVELENGTH 370 nm): 0.14 | absorption ([3]; WAVELENGTH 380 nm): 0.03 | color of the solution BEFORE ADDING FeCl₃ [1]: COLORLESS OR LIGHT YELLOW | color change of the solution AFTER ADDING FeCl₃ [1]: NO CHANGE | Solubility (Solubility; CETYL-2-ETHYLHEXANOATE): 4% | Solubility (Solubility; ETHANOL(99.5%)): 1.4% | Solubility (Solubility; OLIVE OIL): 7%

COc1ccc(C=C2NC(=O)N(CCCCCCCCCCCCCCCC(C)C)C2=O)cc1 [compound 2, 5-(4-METHOXYBENZYLIDENE)-3-[…]]
λmax (ethanol) [2]: 334 nm | ε [2]: 31,500 | color of the solution BEFORE ADDING FeCl₃ [1]: COLORLESS OR LIGHT YELLOW | color change of the solution AFTER ADDING FeCl₃ [1]: NO CHANGE | Solubility (Solubility; CETYL-2-ETHYLHEXANOATE): 14% | Solubility (Solubility; ETHANOL(99.5%)): 4.0% | Solubility (Solubility; OLIVE OIL): 17%

COc1ccc(C(=O)c2ccccc2)c(O)c1 [COMPARISON, 2-hydroxy-4-methoxybenzophenone, reference compound]
absorption ([3]; WAVELENGTH 300 nm): 0.39 | absorption ([3]; WAVELENGTH 310 nm): 0.35 | absorption ([3]; WAVELENGTH 320 nm): 0.40 | absorption ([3]; WAVELENGTH 330 nm): 0.42 | absorption ([3]; WAVELENGTH 340 nm): 0.34 | absorption ([3]; WAVELENGTH 350 nm): 0.20 | absorption ([3]; WAVELENGTH 360 nm): 0.11 | absorption ([3]; WAVELENGTH 370 nm): 0.03 | absorption ([3]; WAVELENGTH 380 nm): 0.00

CCCCC(CC)CN1C(=O)NC(=Cc2ccc(OC)cc2)C1=O (centres unmarked) [COMPOUND 1, 5-(4-METHOXYBENZYLIDENE)-3-(2-ETHYLHEXYL) HYDANTOIN]
λmax (ethanol) [2]: 334 nm | ε [2]: 32,000 | absorption ([3]; WAVELENGTH 300 nm): 0.36 | absorption ([3]; WAVELENGTH 310 nm): 0.53 | absorption ([3]; WAVELENGTH 320 nm): 0.74 | absorption ([3]; WAVELENGTH 330 nm): 0.95 | absorption ([3]; WAVELENGTH 340 nm): 0.94 | absorption ([3]; WAVELENGTH 350 nm): 0.80 | absorption ([3]; WAVELENGTH 360 nm): 0.40 | absorption ([3]; WAVELENGTH 370 nm): 0.10 | absorption ([3]; WAVELENGTH 380 nm): 0.02 | color of the solution BEFORE ADDING FeCl₃ [1]: COLORLESS OR LIGHT YELLOW | color change of the solution AFTER ADDING FeCl₃ [1]: NO CHANGE | Solubility (Solubility; CETYL-2-ETHYLHEXANOATE): 2.1% | Solubility (Solubility; ETHANOL(99.5%)): 1.2% | Solubility (Solubility; OLIVE OIL): 3.2%
